Data from PMC4877593, “Design and Synthesis of Potent in Vitro and in Vivo Anticancer Agents Based on 1-(3′,4′,5′-Trimethoxyphenyl)-2-Aryl-1H-Imidazole” (Scientific Reports, 2016).
Like-named read-outs stand apart in the source and are kept apart here.

Experiments:
Jurkat cells = assay: Cell cycle distribution by flow cytometry (PI), Jurkat; type: cell-based, human; conditions: 24 h treatment
Method: The effects of a 24 h treatment with different concentrations of 4o on cell cycle progression in Jurkat, and HeLa cells were determined by flow cytometry, following propidium iodide (PI) staining of the cells (Fig. 4, Panels A,B). […] In the HeLa cells, the G2/M block was accompanied by a significant reduction of both G1 and S phase cells. In order to determine whether 4o was able to block cells at the mitotic phase (M), cells were stained with an immunofluorescent antibody to p-histone H3, a well known mitotic marker, as well as PI, and analyzed by flow cytometry. As shown in Fig. 4 (Panel C), in which representative histograms are presented, Hela cells arrested in M phase by treatment with 4o are readily distinguished from G2 cells by the higher level of p-histone H3. In particular, treatment with 4o induced an increase in the percentage of mitotic cells from the 2% observed in untreated cells to about 30% with both 50 and 100 nM 4o at 24 h (Fig. 4, Panel D).
5 × 10^5 HeLa or Jurkat cells were treated with different concentrations of the test compounds for 24 h. After the incubation period, the cells were collected, centrifuged, and fixed with ice-cold ethanol (70%). […] Samples were analyzed on a Cytomic FC500 flow cytometer (Beckman Coulter). DNA histograms were analyzed using MultiCycle for Windows (Phoenix Flow Systems).

HeLa [1] = assay: ROS production (H2-DCFDA), HeLa; type: cell-based, human; conditions: in comparison with control cells
Method: Figure 7 Assessment of mitochondrial membrane potential (Δψmt) and production of ROS after treatment of HeLa (Panels A,B) or Jurkat (Panels C,D) cells with compound 4o. Cells were treated with the indicated concentration of compound for 24 or 48 h and then stained with the fluorescent probe JC-1 for analysis of mitochondrial potential or H2-DCFDA for the evaluation of ROS levels. Cells were then analyzed by flow cytometry as described in the experimental section.
It is also well known that dissipation of mitochondrial potential is associated with mitochondrial production of ROS[38]. Superoxide anion is produced by mitochondria due to a shift from the normal 4-electron reduction of O2 to a 1-electron reduction when cytochrome c is released from mitochondria upon apoptosis. Therefore, we investigated whether ROS production increased after treatment with compound 4o. We utilized the dye 2,7-dichlorodihydrofluorescein diacetate (H2-DCFDA), which is oxidized to the fluorescent compound dichlorofluorescein (DCF) upon ROS induction.

PBL stimulated with PHA = assay: Cytotoxicity in PHA-stimulated peripheral blood lymphocytes; type: cell-based, human; conditions: 72 h, PBL from healthy donors, MTT, read-out: IC50 PBLPHA
Method: (§1) This value was almost 600 times higher than that observed against the Jurkat lymphoblastic cell line.
(§2) Human T-cell leukemia (CCRF-CEM and Jurkat) and human B-cell leukemia (SEM) cells were grown in RPMI-1640 medium (Gibco, Milano, Italy). Breast adenocarcinoma (MCF7), human cervix carcinoma (HeLa), and human colon adenocarcinoma (HT-29) cells were grown in DMEM medium (Gibco, Milano, Italy), all supplemented with 115 units/mL penicillin G (Gibco, Milano, Italy), 115 μg/mL streptomycin (Invitrogen, Milano, Italy), and 10% fetal bovine serum (Invitrogen, Milano, Italy). Stock solutions (10 mM) of the different compounds were obtained by dissolving them in dimethyl sulfoxide (DMSO). Individual wells of a 96-well tissue culture microtiter plate were inoculated with 100 μL of complete medium containing 8 × 10^3 cells. The plates were incubated at 37 °C in a humidified 5% CO2 incubator for 18 h prior to the experiments. After medium removal, 100 μL of fresh medium containing the test compound at different concentrations was added to each well in triplicate and incubated at 37 °C for 72 h. The percentage of DMSO in the medium never exceeded 0.25%. This was also the maximum DMSO concentration in all cell-based assays described below. […] Different concentrations of the test compounds were added, and viability was determined 72 h later by the MTT test. […]

bovine brain tubulin = assay: Inhibition of tubulin polymerization (turbidimetry); type: biochemical
Method: To evaluate the effect of the compounds on tubulin assembly in vitro[22], varying concentrations of compounds were preincubated with 10 μM bovine brain tubulin in glutamate buffer at 30 °C and then cooled to 0 °C. After addition of 0.4 mM GTP (final concentration), the mixtures were transferred to 0 °C cuvettes in a recording spectrophotometer equipped with an electronic temperature controller and warmed to 30 °C. Tubulin assembly was followed turbidimetrically at 350 nm. […] The ability of the test compounds to inhibit colchicine binding to tubulin was measured as described, except that the reaction mixtures contained 1 μM tubulin, 5 μM [^3H]colchicine and 1 or 5 μM test compound.

[2] = system: panel of seven human tumor cell lines; assay: Antiproliferative activity across the panel of seven human tumor cell lines; type: cell-based
Method: (§3) Human T-cell leukemia (CCRF-CEM and Jurkat) and human B-cell leukemia (SEM) cells were grown in RPMI-1640 medium (Gibco, Milano, Italy). Breast adenocarcinoma (MCF7), human cervix carcinoma (HeLa), and human colon adenocarcinoma (HT-29) cells were grown in DMEM medium (Gibco, Milano, Italy), all supplemented with 115 units/mL penicillin G (Gibco, Milano, Italy), 115 μg/mL streptomycin (Invitrogen, Milano, Italy), and 10% fetal bovine serum (Invitrogen, Milano, Italy). Stock solutions (10 mM) of the different compounds were obtained by dissolving them in dimethyl sulfoxide (DMSO). Individual wells of a 96-well tissue culture microtiter plate were inoculated with 100 μL of complete medium containing 8 × 10^3 cells. The plates were incubated at 37 °C in a humidified 5% CO2 incubator for 18 h prior to the experiments. After medium removal, 100 μL of fresh medium containing the test compound at different concentrations was added to each well in triplicate and incubated at 37 °C for 72 h. The percentage of DMSO in the medium never exceeded 0.25%. This was also the maximum DMSO concentration in all cell-based assays described below. […] Different concentrations of the test compounds were added, and viability was determined 72 h later by the MTT test. For cytotoxicity evaluations in resting PBL cultures, non-adherent cells were resuspended (5 × 10^5 cells/mL) and treated for 72 h with the test compounds, as described above.

[3] = system: PBL not stimulated with PHA; assay: Cytotoxicity in resting peripheral blood lymphocytes; type: cell-based; conditions: Homo sapiens, Lymphocyte, PBL from healthy donors, 72 h, MTT, read-out: IC50 PBLresting
Method: as §1, §2

HeLa [4] = assay: In vitro antiproliferative activity (MTT), HeLa; type: cell-based; conditions: Homo sapiens, tumor cell proliferation, 72 h, mean ± SE
Method: as §3

HeLa [5] = assay: Annexin-V/PI apoptosis assay, HeLa; type: cell-based, human; conditions: 24 h, lowest concentration used (50 nM)
Method: To evaluate the induction of apoptosis by compound 4o in two cell lines (HeLa and Jurkat), we used an annexin-V/PI assay. Dual staining for annexin-V and with PI permits discrimination between live cells (annexin-V^−/PI^−), early apoptotic cells (annexin-V^+/PI^−), late apoptotic cells (annexin-V^+/PI^+) and necrotic cells (annexin-V^−/PI^+).
Cell death was determined by flow cytometry of cells double stained with annexin V/FITC and PI. The Coulter Cytomics FC500 (Beckman Coulter) was used to measure the surface exposure of phosphatidyl serine on apoptotic cells according to the manufacturer’s instructions (Annexin-V Fluos, Roche Diagnostics).

Q: With `CCOc1ccc(-c2nccn2-c2cc(OC)c(OC)c(OC)c2)cc1Cl` [Compound 4o, 2-(3′-Chloro-4′-ethoxyphenyl)-1-(3′,4′,5′-trimethoxyphenyl)-1H-imidazole] as the compound, how does the “lowest concentration with a rise in G2/M cells” value (Jurkat cells) read?
A: Its value is 25 nM.

Q: What about the “ROS production (H2-DCFDA)” value (HeLa [1]) of the same compound?
A: Its value is “induced the production of large amounts of ROS”.

Q: What about the IC50 (PBL stimulated with PHA; Homo sapiens, Lymphocyte) of the same compound?
A: The IC50 was about 0.5 µM.

Q: What about the IC50 (PBL stimulated with PHA) of the same compound?
A: The IC50 was 0.52 ± 0.04 µM.

Q: What about the IC50 (bovine brain tubulin; repeated beside the calculated energies, read-out: inhibition of tubulin polymerization IC50 (Table 4)) of the same compound?
A: The IC50 was 0.87 µM.

Q: What about the IC50 (bovine brain tubulin; tubulin at 10 μM, 20 min incubation, read-out: Tubulin assembly IC50 ± S.D.) of the same compound?
A: Its IC50 is 0.87 µM.

Q: And the IC50 ([2]; average over the seven cell lines, read-out: average IC50 values)?
A: Its IC50 is 0.0013 µM.

Q: What about the IC50 ([2]; range over seven cancer cell lines, read-out: IC50 values in the seven cell lines (range)) of the same compound?
A: The IC50 was 0.0004 to 0.0038 µM.

Q: And the IC50 [3]?
A: Its IC50 is over 10 µM.

Q: And the IC50 (HeLa [4])?
A: Its IC50 is 0.0038 ± 0.0007 µM.

Q: And the annexin-V positive cells (HeLa [5])?
A: The annexin-V positive cells was “significant accumulation of annexin-V positive cells”.
